# Patent US8076487B2, “Pyridone derivative and herbicide” (Kumiai Chemical Industry Co., Ltd., priority 2006, dated 2011)
# Columns and labels:
# Format in all cases: in vivo
# [1] = system: heartshape false pickerelweed (Monochoria vaginalis (Burm.f.) C.Presl); experiment: Test Example 1: herbicidal effect by soil application to paddy field; details: paddy field soil application; active ingredient 1,000 g per 1 hectare; wettable powder added dropwise to water surface the day after sowing; examined on the 21st day after application
# Summary of the method: (§1)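 Plants were sown in flooded (3 cm) paddy soil and evaluated for herbicidal effect 21 days after soil application in a greenhouse.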
# [2] = system: Japanese bulrush (Scirpus juncoides Roxb.); experiment: as above; details: paddy field soil application; active ingredient 1,000 g per 1 hectare; wettable powder added dropwise to water surface the day after sowing; examined on the 21st day after application
# Summary of the method: as §1
# [3] = system: early watergrass (Echinochloa oryzicola Vasing); experiment: as above; details: paddy field soil application; active ingredient 1,000 g per 1 hectare; wettable powder added dropwise to water surface the day after sowing; examined on the 21st day after application
# Summary of the method: as §1
# [4] = system: velvetleaf (Abutilon theophrasti medicus); experiment: Test Example 3: herbicidal effect by application to upland field (foliage treatment); details: foliage treatment, 1,000 g active ingredient per 1 hectare, 14th day after application, greenhouse
# Protocol: (§2) [table] Test Example 3 Test on Herbicidal Effect by Application to Upland Field In a 80 cm2 plastic pot, field soil was filled. Seeds of barnyardgrass (Echinochloa crus-galli (L.) P. Beauv. var. crus-galli), green foxtail (Setaria viridis (L.) P. Beauv.), velvetleaf (Abutilon theophrasti medicus), and slender amaranth (Amaranthus viridis L.) were sown and allowed to grow for two weeks in a greenhouse. Thereafter, the wettable powder prepared according to Formulation Example 1 was diluted in water and a 1,000 liter equivalent amount per 1 hectare so that the active ingredient becomes 1,000 g per 1 hectare was sprayed using a small sprayer from a top of the plants through its entire body for foliage treatment. Then, on the 14th day after the application to the plants grew in a greenhouse, the herbicidal effect was examined in accordance with a standard shown in Table 34.
# [5] = system: barnyardgrass (Echinochloa crus-galli (L.) P. Beauv. var. crus-galli); experiment: as above; details: foliage treatment, 1,000 g active ingredient per 1 hectare, 14th day after application, greenhouse
# Protocol: as §2
# [6] = system: green foxtail (Setaria viridis (L.) P. Beauv.); experiment: as above; details: foliage treatment, 1,000 g active ingredient per 1 hectare, 14th day after application, greenhouse
# Protocol: as §2
# [7] = system: slender amaranth (Amaranthus viridis L.); experiment: as above; details: foliage treatment, 1,000 g active ingredient per 1 hectare, 14th day after application, greenhouse
# Protocol: as §2
smiles,measurement,setting,value
C=C(C)Cn1c(C(F)(F)F)ccc(C(=O)c2cnn(C)c2OC(C)=O)c1=O [IV-180],"herbicidal effect, Monochoria vaginalis (Burm. f.) C. Presl",[1],5 (90% or more of herbicidal effect and crop phytotoxicity)
same,"herbicidal effect, Scirpus juncoides Roxb.",[2],5 (90% or more of herbicidal effect and crop phytotoxicity)
same,"herbicidal effect, Echinochloa oryzicola Vasing",[3],5 (90% or more of herbicidal effect and crop phytotoxicity)
same,"herbicidal effect, Velvetleaf",[4],5 (90% or more of herbicidal effect and crop phytotoxicity)
same,"herbicidal effect, Barnyardgrass",[5],5 (90% or more of herbicidal effect and crop phytotoxicity)
same,"herbicidal effect, Green Foxtail",[6],4 (70 to less than 90% of herbicidal effect and crop phytotoxicity)
same,"herbicidal effect, Slender Amaranth",[7],5 (90% or more of herbicidal effect and crop phytotoxicity)
Cn1ncc(C(=O)c2ccc(C(F)(F)F)n(Cc3c(C(F)(F)F)nn(C)c3OC(F)F)c2=O)c1O [IV-108],"herbicidal effect, Monochoria vaginalis (Burm. f.) C. Presl",[1],4 (70 to less than 90% of herbicidal effect and crop phytotoxicity)
same,"herbicidal effect, Scirpus juncoides Roxb.",[2],5 (90% or more of herbicidal effect and crop phytotoxicity)
same,"herbicidal effect, Echinochloa oryzicola Vasing",[3],5 (90% or more of herbicidal effect and crop phytotoxicity)
same,"herbicidal effect, Velvetleaf",[4],5 (90% or more of herbicidal effect and crop phytotoxicity)
same,"herbicidal effect, Barnyardgrass",[5],4 (70 to less than 90% of herbicidal effect and crop phytotoxicity)
same,"herbicidal effect, Green Foxtail",[6],4 (70 to less than 90% of herbicidal effect and crop phytotoxicity)
same,"herbicidal effect, Slender Amaranth",[7],4 (70 to less than 90% of herbicidal effect and crop phytotoxicity)
CC(C)Nn1c(C(F)(F)F)ccc(C(=O)C2=C(O)CCCC2=O)c1=O [I-160],"herbicidal effect, Monochoria vaginalis (Burm. f.) C. Presl",[1],5 (90% or more of herbicidal effect and crop phytotoxicity)
same,"herbicidal effect, Scirpus juncoides Roxb.",[2],5 (90% or more of herbicidal effect and crop phytotoxicity)
same,"herbicidal effect, Echinochloa oryzicola Vasing",[3],5 (90% or more of herbicidal effect and crop phytotoxicity)
same,"herbicidal effect, Velvetleaf",[4],5 (90% or more of herbicidal effect and crop phytotoxicity)
same,"herbicidal effect, Barnyardgrass",[5],4 (70 to less than 90% of herbicidal effect and crop phytotoxicity)
same,"herbicidal effect, Green Foxtail",[6],3 (50 to less than 70% of herbicidal effect and crop phytotoxicity)
same,"herbicidal effect, Slender Amaranth",[7],5 (90% or more of herbicidal effect and crop phytotoxicity)
CC(=O)Oc1c(C(=O)c2ccc(C(F)(F)F)n(C)c2=O)cnn1C(C)C [IV-220],"herbicidal effect, Monochoria vaginalis (Burm. f.) C. Presl",[1],5 (90% or more of herbicidal effect and crop phytotoxicity)
same,"herbicidal effect, Scirpus juncoides Roxb.",[2],5 (90% or more of herbicidal effect and crop phytotoxicity)
same,"herbicidal effect, Echinochloa oryzicola Vasing",[3],5 (90% or more of herbicidal effect and crop phytotoxicity)
same,"herbicidal effect, Velvetleaf",[4],5 (90% or more of herbicidal effect and crop phytotoxicity)
same,"herbicidal effect, Barnyardgrass",[5],4 (70 to less than 90% of herbicidal effect and crop phytotoxicity)
same,"herbicidal effect, Green Foxtail",[6],3 (50 to less than 70% of herbicidal effect and crop phytotoxicity)
same,"herbicidal effect, Slender Amaranth",[7],5 (90% or more of herbicidal effect and crop phytotoxicity)
CCC(C)Nn1c(C(F)(F)F)ccc(C(=O)C2=C(O)CCCC2=O)c1=O (stereo not drawn) [I-163],"herbicidal effect, Monochoria vaginalis (Burm. f.) C. Presl",[1],5 (90% or more of herbicidal effect and crop phytotoxicity)
same,"herbicidal effect, Scirpus juncoides Roxb.",[2],5 (90% or more of herbicidal effect and crop phytotoxicity)
same,"herbicidal effect, Echinochloa oryzicola Vasing",[3],5 (90% or more of herbicidal effect and crop phytotoxicity)
same,"herbicidal effect, Velvetleaf",[4],5 (90% or more of herbicidal effect and crop phytotoxicity)
same,"herbicidal effect, Barnyardgrass",[5],5 (90% or more of herbicidal effect and crop phytotoxicity)
same,"herbicidal effect, Green Foxtail",[6],5 (90% or more of herbicidal effect and crop phytotoxicity)
same,"herbicidal effect, Slender Amaranth",[7],5 (90% or more of herbicidal effect and crop phytotoxicity)
Cc1ccc(C(=O)COc2c(C(=O)c3ccc(C(F)(F)F)n(CC4CCCO4)c3=O)cnn2C)cc1 (stereo not drawn) [IV-139],"herbicidal effect, Monochoria vaginalis (Burm. f.) C. Presl",[1],5 (90% or more of herbicidal effect and crop phytotoxicity)
same,"herbicidal effect, Scirpus juncoides Roxb.",[2],5 (90% or more of herbicidal effect and crop phytotoxicity)
same,"herbicidal effect, Echinochloa oryzicola Vasing",[3],5 (90% or more of herbicidal effect and crop phytotoxicity)
same,"herbicidal effect, Velvetleaf",[4],5 (90% or more of herbicidal effect and crop phytotoxicity)
same,"herbicidal effect, Barnyardgrass",[5],5 (90% or more of herbicidal effect and crop phytotoxicity)
same,"herbicidal effect, Green Foxtail",[6],4 (70 to less than 90% of herbicidal effect and crop phytotoxicity)
same,"herbicidal effect, Slender Amaranth",[7],5 (90% or more of herbicidal effect and crop phytotoxicity)
CCSCn1c(C(F)(F)F)ccc(C(=O)C2=C(O)C3CCC(C3)C2=O)c1=O (stereo not drawn) [III-26],"herbicidal effect, Velvetleaf",[4],5 (90% or more of herbicidal effect and crop phytotoxicity)
same,"herbicidal effect, Barnyardgrass",[5],5 (90% or more of herbicidal effect and crop phytotoxicity)
same,"herbicidal effect, Green Foxtail",[6],5 (90% or more of herbicidal effect and crop phytotoxicity)
same,"herbicidal effect, Slender Amaranth",[7],5 (90% or more of herbicidal effect and crop phytotoxicity)
CCCS(=O)(=O)Cc1c(Br)cc(C(=O)C2=C(O)CCCC2=O)c(=O)n1-c1ccccc1 [I-237],"herbicidal effect, Velvetleaf",[4],5 (90% or more of herbicidal effect and crop phytotoxicity)
same,"herbicidal effect, Barnyardgrass",[5],5 (90% or more of herbicidal effect and crop phytotoxicity)
same,"herbicidal effect, Green Foxtail",[6],4 (70 to less than 90% of herbicidal effect and crop phytotoxicity)
same,"herbicidal effect, Slender Amaranth",[7],5 (90% or more of herbicidal effect and crop phytotoxicity)
CC[S+]([O-])Cn1c(C(F)(F)F)ccc(C(=O)C2=C(O)C3CCC(C3)C2=O)c1=O (stereo not drawn) [III-27],"herbicidal effect, Velvetleaf",[4],5 (90% or more of herbicidal effect and crop phytotoxicity)
same,"herbicidal effect, Barnyardgrass",[5],5 (90% or more of herbicidal effect and crop phytotoxicity)
same,"herbicidal effect, Green Foxtail",[6],5 (90% or more of herbicidal effect and crop phytotoxicity)
same,"herbicidal effect, Slender Amaranth",[7],5 (90% or more of herbicidal effect and crop phytotoxicity)
O=C1CCCC(O)=C1C(=O)c1ccc(C(F)(F)F)n(CS(=O)(=O)CC(F)(F)F)c1=O [I-64],"herbicidal effect, Monochoria vaginalis (Burm. f.) C. Presl",[1],5 (90% or more of herbicidal effect and crop phytotoxicity)
same,"herbicidal effect, Scirpus juncoides Roxb.",[2],5 (90% or more of herbicidal effect and crop phytotoxicity)
same,"herbicidal effect, Echinochloa oryzicola Vasing",[3],4 (70 to less than 90% of herbicidal effect and crop phytotoxicity)
Cc1nn(C)c(O)c1C(=O)c1ccc(C(F)(F)F)n(CC2CCCO2)c1=O (stereo not drawn) [IV-238],"herbicidal effect, Monochoria vaginalis (Burm. f.) C. Presl",[1],5 (90% or more of herbicidal effect and crop phytotoxicity)
same,"herbicidal effect, Scirpus juncoides Roxb.",[2],5 (90% or more of herbicidal effect and crop phytotoxicity)
same,"herbicidal effect, Echinochloa oryzicola Vasing",[3],4 (70 to less than 90% of herbicidal effect and crop phytotoxicity)
Cn1ncc(C(=O)c2ccc(C(F)(F)F)n(CCCS(C)(=O)=O)c2=O)c1O [IV-60],"herbicidal effect, Monochoria vaginalis (Burm. f.) C. Presl",[1],5 (90% or more of herbicidal effect and crop phytotoxicity)
same,"herbicidal effect, Scirpus juncoides Roxb.",[2],5 (90% or more of herbicidal effect and crop phytotoxicity)
same,"herbicidal effect, Echinochloa oryzicola Vasing",[3],5 (90% or more of herbicidal effect and crop phytotoxicity)
C=CCn1ncc(C(=O)c2ccc(C(F)(F)F)n(C)c2=O)c1O [IV-225],"herbicidal effect, Monochoria vaginalis (Burm. f.) C. Presl",[1],5 (90% or more of herbicidal effect and crop phytotoxicity)
same,"herbicidal effect, Scirpus juncoides Roxb.",[2],5 (90% or more of herbicidal effect and crop phytotoxicity)
same,"herbicidal effect, Echinochloa oryzicola Vasing",[3],5 (90% or more of herbicidal effect and crop phytotoxicity)
CC(C)c1ccc(C(=O)C2=C(O)CCCC2=O)c(=O)n1-c1ccccc1 [I-232],"herbicidal effect, Monochoria vaginalis (Burm. f.) C. Presl",[1],5 (90% or more of herbicidal effect and crop phytotoxicity)
same,"herbicidal effect, Scirpus juncoides Roxb.",[2],5 (90% or more of herbicidal effect and crop phytotoxicity)
same,"herbicidal effect, Echinochloa oryzicola Vasing",[3],5 (90% or more of herbicidal effect and crop phytotoxicity)
Cn1ncc(C(=O)c2ccc(C(F)(F)F)n(CC3CCCO3)c2=O)c1OC(=O)c1ccc(C(C)(C)C)cc1 (stereo not drawn) [IV-132],"herbicidal effect, Monochoria vaginalis (Burm. f.) C. Presl",[1],5 (90% or more of herbicidal effect and crop phytotoxicity)
same,"herbicidal effect, Scirpus juncoides Roxb.",[2],5 (90% or more of herbicidal effect and crop phytotoxicity)
same,"herbicidal effect, Echinochloa oryzicola Vasing",[3],5 (90% or more of herbicidal effect and crop phytotoxicity)
